Assay results published in patent publication US20210041466A1, “DIAGNOSTIC METHODS AND KITS” (Cholestenix Limited, priority 2015, published 2021).

Legend:
Smoothened (Smo) = conditions: from the literature (Myers Dev Cell 2013; Corcoran PNAS 2006; Nachtergaele Nat Chem Bio 2012); cited from earlier work
[1] = tested on: Hedgehog signalling (Gli1 mRNA); experiment: Hedgehog signalling assay using quantitative RT-PCR (Gli1 mRNA in NIH/3T3 cells); format: cell-based; conditions: sterol treatment ~16 hours, different concentrations (FIG. 6, 7)
Protocol: NIH/3T3 cells were grown to confluency in Dulbecco's Modified Eagle's Medium (DMEM) containing 10% Fetal Bovine Serum (FBS, Optima Grade, Atlanta Biologicals). Confluent cells were exchanged into 0.5% FBS DMEM for 24 hours to allow ciliogenesis prior to treatment with sterols in DMEM containing 0.5% FBS for ˜16 hours. SHH protein carrying a C-terminal hexa-histidine tag was expressed in bacteria and purified as described previously [Bishop Nat Struct Mol Biol 2009]. The mRNA levels of Gli1, a direct Hh target gene commonly used as a metric for signalling strength, were measured using the Power SYBR Green Cells-To-CT kit (Thermo Fisher Scientific). The primers used are Gli1 (forward primer: 5′-[…]-3′ and reverse primer: 5′-[…]-3′), Gapdh (forward primer: 5′-[…]-3′ and reverse primer: 5′-[…]-3′). Transcript levels relative to Gapdh were calculated using the Δelta-Ct method. Each qRT-PCR experiment, which was repeated twice, included two biological replicates, each with two technical replicates.

Row | Compound | activation of Smo (Smoothened (Smo)) | effect on Hedgehog signalling (mRNA levels of Gli1) [1]
1 | C[C@H](CCCC(C)(C)O)[C@H]1CC[C@H]2[C@@H]3C(=O)C=C4C[C@@H](O)CC[C@]4(C)[C@H]3CC[C@]12C [Compound XXII, 3β,25-dihydroxycholest-5-en-7-one] | activators of Smo | –
2 | C[C@@H](CO)CCC[C@@H](C)[C@H]1CC[C@H]2[C@@H]3C(=O)C=C4C[C@@H](O)CC[C@]4(C)[C@H]3CC[C@]12C [Compound XX, 3β,26-Dihydroxycholest-5-en-7-one] | activators of Smo | activator of Hedgehog signalling
3 | C[C@H](CCC(=O)O)[C@H]1CC[C@H]2[C@@H]3C(=O)C=C4C[C@@H](O)CC[C@]4(C)[C@H]3CC[C@]12C [Compound XXI, 3β-Hydroxy-7-oxochol-5-en-24-oic acid] | – | inhibitor of Hedgehog signalling
4 | CC(C)CCC[C@](C)(O)[C@H]1CC[C@H]2[C@@H]3CC=C4C[C@@H](O)CC[C@]4(C)[C@H]3CC[C@@]21C [20S-Hydroxycholesterol, reference compound] | activate Smo in vitro | –
